Test results from patent publication US9790189B2, “Disubstituted 5-fluoro pyrimidine derivatives containing a sulfondiimine group” (Bayer Pharma Aktiengesellschaft, priority 2014, dated 2017).
≈ marks a conversion by molar mass, not a printed value.

Key:
[1] = Caco-2 permeation assay (Method 5); type: in vitro ADME; settings: human, pH 7.2, Caco-2, 2 μM test compound, 2 h
Procedure: Cells were maintained at 37° C. in a humidified 5% CO2 atmosphere. Medium was changed every 2-3 day. Before running the permeation assay, the culture medium was replaced by a FCS-free hepes-carbonate transport buffer (pH 7.2). For assessment of monolayer integrity the transepithelial electrical resistance (TEER) was measured. Test compounds were predissolved in DMSO and added either to the apical or basolateral compartment in final concentration of 2 μM in transport buffer. Before and after 2 h incubation at 37° C. samples were taken from both compartments. Analysis of compound content was done after precipitation with methanol by LC/MS/MS analysis. Permeability (Papp) was calculated in the apical to basolateral (A→B) and basolateral to apical (B→A) directions. […] The efflux ratio basolateral (B) to apical (A) was calculated by dividing the Papp B−A by the Papp A−B. In addition the compound recovery was calculated.

[2] = tested on: A2780 cells; assay: Proliferation assay, A2780 (crystal violet); type: cell-based; settings: Homo sapiens, 96 h; A2780, 4 days; read-out: Inhibition of A2780 cell proliferation IC50
Procedure: (§1) Cultivated tumour cells (HeLa, human cervical tumour cells, ATCC CCL-2; NCI-H460, human non-small cell lung carcinoma cells, ATCC HTB-177; A2780, human ovarian carcinoma cells, ECACC #93112519; DU 145, hormone-independent human prostate carcinoma cells, ATCC HTB-81; HeLa-MaTu-ADR, multidrug-resistant human cervical carcinoma cells, EPO-GmbH Berlin; Caco-2, human colorectal carcinoma cells, ATCC HTB-37; B16F10, mouse melanoma cells, ATCC CRL-6475) were plated at a density of 5,000 cells/well (DU145, HeLa-MaTu-ADR), 3,000 cells/well (NCI-H460, HeLa), 2,500 cells/well (A2780), 1,500 cells/well (Caco-2), or 1,000 cells/well (B16F10) in a 96-well multititer plate in 200 μL of their respective growth medium supplemented 10% fetal calf serum. After 24 hours, the cells of one plate (zero-point plate) were stained with crystal violet (see below), while the medium of the other plates was replaced by fresh culture medium (200 μl), to which the test substances were added in various concentrations (0 μM, as well as in the range of 0.001-10 μM; the final concentration of the solvent dimethyl sulfoxide was 0.5%). The cells were incubated for 4 days in the presence of test substances. Cell proliferation was determined by staining the cells with crystal violet: the cells were fixed by adding 20 μl/measuring point of an 11% glutaric aldehyde solution for 15 minutes at room temperature. After three washing cycles of the fixed cells with water, the plates were dried at room temperature. The cells were stained by adding 100 μl/measuring point of a 0.1% crystal violet solution (pH 3.0). After three washing cycles of the stained cells with water, the plates were dried at room temperature. The dye was dissolved by adding 100 μl/measuring point of a 10% acetic acid solution. The extinction was determined by photometry at a wavelength of 595 nm. The change of cell number, in percent, was calculated by normalization of the measured values to the extinction values of the zero-point plate (=0%) and the extinction of the untreated (0 μm) cells (=100%).

[3] = tested on: Caco-2 cells; assay: Proliferation assay, Caco-2 (crystal violet); type: cell-based; settings: Homo sapiens, 96 h; Caco-2, 4 days; read-out: Inhibition of Caco-2 cell proliferation IC50
Procedure: as §1

[4] = tested on: HeLa-MaTu-ADR cells; assay: Proliferation assay, HeLa-MaTu-ADR (crystal violet); type: cell-based; settings: Homo sapiens, 96 h, 4 days, read-out: Inhibition of HeLa-MaTu-ADR cell proliferation IC50
Procedure: as §1

[5] = tested on: NCI-H460 cells; assay: Proliferation assay, NCI-H460 (crystal violet); type: cell-based; settings: Homo sapiens, 96 h; NCI-H460, 4 days; read-out: Inhibition of NCI-H460 cell proliferation IC50
Procedure: as §1

[6] = Thermodynamic solubility in water from powder (Method 4b); type: physicochemical; settings: aqueous buffer, thermodynamic from solid, phosphate buffer pH 6.5, 24 hrs, room temperature
Procedure: (§2) 4. Equilibrium Shake Flask Solubility Assays:
4b) Thermodynamic Solubility in Water from Powder
The thermodynamic solubility of compounds in water was determined by an equilibrium shake flask method (see for example: E. H. Kerns, L. Di: Drug-like Properties: Concepts, Structure Design and Methods, 276-286, Burlington, Mass., Academic Press, 2008). A saturated solution of the drug was prepared and the solution was mixed for 24 h to ensure that equilibrium was reached. The solution was centrifuged to remove the insoluble fraction and the concentration of the compound in solution was determined using a standard calibration curve. To prepare the sample, 2 mg solid compound was weighed in a 4 mL glass vial. 1 mL phosphate buffer pH 6.5 was added. The suspension was stirred for 24 hrs at room temperature. The solution was centrifuged afterwards. To prepare the sample for the standard calibration, 2 mg solid sample was dissolved in 30 mL acetonitrile. After sonification the solution was diluted with water to 50 mL. Sample and standards were quantified by HPLC with UV-detection. For each sample two injection volumes (5 and 50 μl) in triplicates were made. Three injection volumes (5 μl, 10 μl and 20 μl) were made for the standard. […]
The areas of sample- and standard injections as well as the calculation of the solubility value (in mg/l) were determined by using HPLC software (Waters Empower 2 FR).

[7] = tested on: B16F10 cells; assay: Proliferation assay, B16F10 (crystal violet); type: cell-based; settings: Mus musculus, B16-F10, 96 h; B16F10, 4 days; read-out: Inhibition of B16F10 cell proliferation IC50
Procedure: as §1

[8] = tested on: DU145 cells; assay: Proliferation assay, DU145 (crystal violet); type: cell-based; settings: Homo sapiens, DU-145, 96 h; DU145, 4 days; read-out: Inhibition of DU145 cell proliferation IC50
Procedure: as §1

[9] = tested on: HeLa cells; assay: Proliferation assay, HeLa (crystal violet); type: cell-based; settings: Homo sapiens, 96 h, 4 days, read-out: Inhibition of HeLa cell proliferation IC50
Procedure: as §1

[10] = Equilibrium shake flask solubility, high throughput from DMSO solution (Method 4a); type: physicochemical; settings: phosphate buffer pH 6.5 with 1% DMSO, aqueous buffer, phosphate buffer pH 6.5, 24 hrs, room temperature
Excerpt: as §2
4a) High Throughput Determination of Aqueous Drug Solubility (100 mmolar in DMSO)
The high throughput screening method to determine aqueous drug solubility is based on:
Thomas Onofrey and Greg Kazan, Performance and correlation of a 96-well high throughput screening method to determine aqueous drug solubility, http://www.millipore.com/publications.nsf/a73664f9f981af8c852569b9005b4eee/e565516fb76e7435852 56da30052db77/$FILE/AN1731EN00.pdf
The assay was run in a 96-well plate format. Each well was filled with an individual compound.
All pipetting steps were performed using a robot platform.
100 μl of a 10 mmolar solution of drug in DMSO were concentrated by vacuum centrifugation and resolved in 10 μl DMSO. 990 μl phosphate buffer pH 6.5 were added. The content of DMSO amounts to 1%. The multititer plate was put on a shaker and mixed for 24 hrs at room temperature. 150 μl of the suspension were transferred to a filtration plate. After filtration using a vacuum manifold the filtrate was diluted 1:400 and 1:8000. A second microtiter plate with 20 μl of a 10 mM solution of drug in DMSO served for calibration. Two concentrations (0.005 μM and 0.0025 μM) were prepared by dilution in DMSO/water 1:1 and used for calibration. Filtrate and calibration plates were quantified by HPLC-MS/MS.
Preparation of 0.1 m Phosphate Buffer pH 6.5:
61.86 g NaCl and 39.54 mg KH2PO4 were solved in water and filled up to […]. The mixture was diluted 1:10 with water and the pH adjusted to 6.5 by NaOH.
Materials: • Millipore MultiScreenHTS-HV Plate 0.45 μm
Chromatographic conditions were as follows: • HPLC column: Ascentis Express C18 2.7 μm 4.6×30 mm • Injection volume: 1 μl • Flow: 1.5 ml/min • Mobile phase: acidic gradient • A: Water/0.05% HCOOH • B: Acetonitrile/0.05% HCOOH • 0 min→95% A 5% B • 0.75 min→5% A 95% B • 2.75 min→5% A 95% B • 2.76 min→95% A 5% B • 3 min→95% A 5% B
The areas of sample- and calibration injections were determined by using mass spectromety software (AB SCIEX: Discovery Quant 2.1.3. and Analyst 1.6.1). The calculation of the solubility value (in mg/l) was executed by an inhouse developed Excel macro.

Papp A→B at 2 h, 2 µM ([1]; read-out: Papp A−B (Mari)): 5 ×10⁻⁶ cm/s
Papp B→A at 2 h, 2 µM ([1]; read-out: Papp B−A (Mari)): 28 ×10⁻⁶ cm/s
IC50 [2]: 201 nM
IC50 [3]: 386 nM
IC50 [4]: 327 nM
IC50 [5]: 351 nM
solubility thermodynamic at 24 h [6]: 91 µg/mL (≈ 216 µM)
IC50 [7]: 532 nM
IC50 [8]: 341 nM
IC50 [9]: 252 nM
solubility thermodynamic at 24 h [10]: 155 µg/mL (≈ 368 µM)
Structure (SMILES): COc1cc(F)ccc1-c1nc(Nc2cc(F)cc(CS(C)(=N)=N)c2)ncc1F [Example 1, 5-Fluoro-4-(4-fluoro-2-methoxyphenyl)-N-{3-fluoro-5-[(S-methylsulfonodiimidoyl)methyl]phenyl}pyrimidin-2-amine]
